The text below walks through data of patent US11819476B2, “Rapamycin analogs and uses thereof” (Janssen Pharmaceutica NV, priority 2019, dated 2023).

Usually IC50 stands for the concentration that inhibits the measured activity by half.

The test system of the first test is pS6K1 in MCF7. Nature of the test: AlphaLISA Ultra pS6K1 Assay. The format is cell-based. The conditions noted are these: Homo sapiens, 1.5 h; MCF7 cells, 90 min incubation. The method, then: Example 74: AlphaLISA Ultra pS6K1 Assay
Assay Protocol: • 1. Seed MCF-7 cells in Corning 3701 plate and incubate for 20˜24 hour. 12,000˜16,000 cells will be seeded in 36 μL medium per well. • 2. Change the culture medium with fresh medium and incubate for another 2 hours. • 3. Add 12 μL (4×) compounds into the cell plate by HAMILTON. Final DMSO concentration is 0.5%. Incubate for 90 minutes. • 4. Aspirate 38 μL by HAMILTON, 10 μL rest per well. • 5. Add 10 μL 2× lysis buffer using HAMILTON; total volume in wells is 20 μL. Allow cells to shake for 30 min. Cover plate by plastic foil and store plate at −80° C. up to analysis. • 6. Thaw cell lysate at RT and transfer 10 μL lysate to assay plate (Optiplate-384). • 7. Add 5 μL acceptor beads into assay plate and incubation for 2 hours • 8. Add 5 μL donor beads and incubation for 2 hours • 9. Count the plate by EnSpire Multimode Plate Reader
For orientation: Bead proximity is the source of the signal in Alpha formats.
Turning to `COc1ccc([C@H]2C[C@@H]3CC[C@@H](C)[C@@](O)(O3)C(=O)C(=O)N3CCCC[C@H]3C(=O)O[C@H]([C@H](C)C[C@@H]3CC[C@@H](O)[C@H](OC)C3)CC(=O)[C@H](C)/C=C(\C)[C@H](O)[C@@H](OC)C(=O)[C@H](C)C[C@H](C)/C=C/C=C/C=C/2C)c(OC)c1` [Example I-38, (26E,28E,30E,31E,36R,37S,38R,39R,41S,43S,44S,46S,47R,48R,57R)-44-(2,4-dimethoxyphenyl)-47,57-dihydroxy-46-[(1R)-2-[(1S,3R,4R)-4-hydroxy-3-methoxy-cyclohexyl]-1-methyl-ethyl]-48-methoxy-36,37,38,39,49,50-hexamethyl-67,68-dioxa-58-azatricyclohexatriaconta-26,28,30(49),31(50)-tetraene-51,52,53,54,55-pentone], the IC50 lay within 10 to 100 nM.
On the same count and under the same terms, the result for `CO[C@@H]1C[C@H](C[C@@H](C)[C@@H]2CC(=O)[C@H](C)/C=C(\C)[C@@H](O)[C@@H](OC)C(=O)[C@H](C)C[C@H](C)/C=C/C=C/C=C(\C)C(OCCOC3CCOCC3)C[C@@H]3CC[C@@H](C)[C@@](O)(O3)C(=O)C(=O)N3CCCC[C@H]3C(=O)O2)CC[C@H]1OCCO` (stereo partly drawn) [Example I-13, (25E,27E,29E,30E,36R,37S,38R,39R,42S,44S,47S,48R,49R,58R)-48,58-dihydroxy-47-[(1R)-2-[(1S,3R,4R)-4-(2-hydroxyethoxy)-3-methoxy-cyclohexyl]-1-methyl-ethyl]-49-methoxy-36,37,38,39,50,51-hexamethyl-46-(2-tetrahydropyran-4-yloxyethoxy)-69,70-dioxa-59-azatricyclohexatriaconta-25,27,29(50),30(51)-tetraene-52,53,54,55,56-pentone] reads 1 to 10 nM; that for `CO[C@@H]1C[C@H](C[C@@H](C)[C@@H]2CC(=O)[C@H](C)/C=C(\C)[C@@H](O)[C@@H](OC)C(=O)[C@H](C)C[C@H](C)/C=C/C=C/C=C(\C)C(OCCOC3COC3)C[C@@H]3CC[C@@H](C)[C@@](O)(O3)C(=O)C(=O)N3CCCC[C@H]3C(=O)O2)CC[C@H]1OCCO` (stereo partly drawn) [Example I-14, (23E,25E,27E,28E,34R,35S,36R,37R,39S,41S,44S,46R,47R,56R)-46,56-dihydroxy-44-[(1R)-2-[(1S,3R,4R)-4-(2-hydroxyethoxy)-3-methoxy-cyclohexyl]-1-methyl-ethyl]-47-methoxy-34,35,36,37,48,49-hexamethyl-43-[2-(oxetan-3-yloxy)ethoxy]-67,68-dioxa-57-azatricyclohexatriaconta-23,25,27(48),28(49)-tetraene-50,51,52,53,54-pentone], 0.1 to 1 nM.
In the case of `CO[C@@H]1C[C@H](C[C@@H](C)[C@@H]2CC(=O)[C@H](C)/C=C(\C)[C@@H](O)[C@@H](OC)C(=O)[C@H](C)C[C@H](C)/C=C/C=C/C=C(\C)[C@H](OCCOC3COC3)C[C@@H]3CC[C@@H](C)[C@@](O)(O3)C(=O)C(=O)N3CCCC[C@H]3C(=O)O2)CC[C@H]1OCCO` [Example I-8, (23E,25E,27E,28E,34R,35S,36R,37R,39S,41S,43R,44S,46R,47R,56R)-46,56-dihydroxy-44-[(1R)-2-[(1S,3R,4R)-4-(2-hydroxyethoxy)-3-methoxy-cyclohexyl]-1-methyl-ethyl]-47-methoxy-34,35,36,37,48,49-hexamethyl-43-[2-(oxetan-3-yloxy)ethoxy]-67,68-dioxa-57-azatricyclohexatriaconta-23,25,27(48),28(49)-tetraene-50,51,52,53,54-pentone], the IC50 lay in the range of 1 to 10 nM.
On the same count and under the same terms, the result for `CO[C@@H]1C[C@H](C[C@@H](C)[C@@H]2CC(=O)[C@H](C)/C=C(\C)[C@@H](O)[C@@H](OC)C(=O)[C@H](C)C[C@H](C)/C=C/C=C/C=C(\C)C(OCC3CCCCC3)C[C@@H]3CC[C@@H](C)[C@@](O)(O3)C(=O)C(=O)N3CCCC[C@H]3C(=O)O2)CC[C@H]1OCCO` (stereo partly drawn) [Example I-10, (26E,28E,30E,31E,36R,37S,38R,39R,42S,44S,47S,48R,49R,58R)-46-(cyclohexylmethoxy)-48,58-dihydroxy-47-[(1R)-2-[(1S,3R,4R)-4-(2-hydroxyethoxy)-3-methoxy-cyclohexyl]-1-methyl-ethyl]-49-methoxy-36,37,38,39,50,51-hexamethyl-68,69-dioxa-59-azatricyclohexatriaconta-26,28,30(50),31(51)-tetraene-52,53,54,55,56-pentone] reads 1 to 10 nM; that for `CO[C@@H]1C[C@H](C[C@@H](C)[C@@H]2CC(=O)[C@H](C)/C=C(\C)[C@@H](O)[C@@H](OC)C(=O)[C@H](C)C[C@H](C)/C=C/C=C/C=C(\C)C(OCC3CCCCO3)C[C@@H]3CC[C@@H](C)[C@@](O)(O3)C(=O)C(=O)N3CCCC[C@H]3C(=O)O2)CC[C@H]1OCCO` (stereo partly drawn) [Example I-11, (25E,27E,29E,30E,35R,36S,37R,38R,40S,43S,46S,47R,48R,57R)-47,57-dihydroxy-46-[(1R)-2-[(1S,3R,4R)-4-(2-hydroxyethoxy)-3-methoxy-cyclohexyl]-1-methyl-ethyl]-48-methoxy-35,36,37,38,49,50-hexamethyl-45-(tetrahydropyran-2-ylmethoxy)-68,69-dioxa-58-azatricyclohexatriaconta-25,27,29(49),30(50)-tetraene-51,52,53,54,55-pentone], less than 0.1 nM.

In another test the test system is pS6K1 T389 in PC3 cells (mTORC1 pathway). Nature of the test: Western blot based pS6K1 assay (mTORC1 pathway). Format: cell-based. The following applies: 24 hours. On the procedure:
Example 76: Western Blot Based pS6K1 and pAKT Assay at 24 and 48 Hour Timepoints
Assay Protocol: • 1. Seed six well plate with 500,000 PC3 cells per well and incubate for […]. • 2. Add compounds into the cell plate. Incubate for 24 to 48 hours. • 4. Plate is placed on ice and the media is removed via aspiration. The wells are washed with 1 mL of 1×PBS and then fully aspirated. • 5. 110 μL of 1% Triton Lysis Buffer is added and each well is scraped vigorously. • 6. Cell homogenates are transferred to 1.5 mL eppendorf tubes on ice and spun down at 4° C. for 10 minutes at 10,000 rpm. • 7. Protein concentration of resulting cell lysates were quantified utilizing a Bradford assay and the samples run analyzed via Western blot on 4-12% Bis/Tris gels with 1×MES buffer. • 8. The gels were transferred onto membranes at 50V for 100 minutes, blocked with Odyssey Blocking buffer for 30 minutes then incubated overnight with primary antibody (pS6K1 T389 Rabbit or pAkt S473 Rabbit) overnight at 4° C. on a rotator. • 9. The membranes were washed 3× with TBS-T with a 5 minute incubation between each wash then incubated with secondary antibody (LiCor IRDye 800 Donkey Anti Rabbit) for at least 30 minutes. • 10. The membranes were washed 3× with TBS-T with a 5 minute incubation between each wash. • 11. The gels were then incubated for 5 minutes with PBS at room temperature then imaged using a Li-Cor.
PC3 cells were treated with everolimus (0.1 μM, 0.01 μM, and 0.001 μM) or I-9 ([…], 0.1 μM, 0.01 μM, and 0.001 μM) for 24 hours.
The methods employed were substantially similar to those described above. Compounds were evaluated in PC3 cells. Additional cell lines that may be used include Jurkat cells, wild-type mouse embryotic fibroblast (MEF) cells, tuberous sclerosis 2 (TSC2) negative (TSC−/−) MEF cells, and tuberous sclerosis 2 (TSC2) positive (TSC+/+) MEF cells. Cells are incubated with compounds of the present invention for various time periods (e.g., 5 minutes, 15 minutes, 30 minutes, 90 minutes, 24 hours, or 48 hours), and evaluated according to known methodologies, such as those herein described.
As for `CO[C@@H]1C[C@H](C[C@@H](C)[C@@H]2CC(=O)[C@H](C)/C=C(\C)[C@@H](O)[C@@H](OC)C(=O)[C@H](C)C[C@H](C)/C=C/C=C/C=C(\C)[C@@H](OCCCC3CCNC3=O)C[C@@H]3CC[C@@H](C)[C@@](O)(O3)C(=O)C(=O)N3CCCC[C@H]3C(=O)O2)CC[C@H]1OCCO` (stereo partly drawn) [Example I-15, (23E,25E,27E,28E,35R,36S,37R,38R,40S,43S,45S,46S,47R,48R,58R)-47,58-dihydroxy-46-[(1R)-2-[(1S,3R,4R)-4-(2-hydroxyethoxy)-3-methoxy-cyclohexyl]-1-methyl-ethyl]-48-methoxy-35,36,37,38,49,50-hexamethyl-45-[3-(2-oxopyrrolidin-3-yl)propoxy]-70,71-dioxa-60-azatricyclohexatriaconta-23,25,27(49),28(50)-tetraene-51,52,54,55,56-pentone], the “inhibition of the mTORC1 pathway (pS6K1, Western blot)” value is given as “strong inhibition”.
With `CO[C@@H]1C[C@H](C[C@@H](C)[C@@H]2CC(=O)[C@H](C)/C=C(\C)[C@@H](O)[C@@H](OC)C(=O)[C@H](C)C[C@H](C)/C=C/C=C/C=C(\C)[C@@H](OCCCCC(N)=O)C[C@@H]3CC[C@@H](C)[C@@](O)(O3)C(=O)C(=O)N3CCCC[C@H]3C(=O)O2)CC[C@H]1OCCO` [Example I-48], the “inhibition of the mTORC1 pathway (pS6K1, Western blot)” value was “strong inhibition”.
Still for that read-out and setting: the result for `CO[C@@H]1C[C@H](C[C@@H](C)[C@@H]2CC(=O)[C@H](C)/C=C(\C)[C@@H](O)[C@@H](OC)C(=O)[C@H](C)C[C@H](C)/C=C/C=C/C=C(\C)[C@@H](OCCC3CCNC3=O)C[C@@H]3CC[C@@H](C)[C@@](O)(O3)C(=O)C(=O)N3CCCC[C@H]3C(=O)O2)CC[C@H]1OCCO` (stereo partly drawn) [Example I-3, (23E,25E,27E,28E,34R,35S,36R,37R,39S,42S,44S,45S,46R,47R,57R)-46,57-dihydroxy-45-[(1R)-2-[(1S,3R,4R)-4-(2-hydroxyethoxy)-3-methoxy-cyclohexyl]-1-methyl-ethyl]-47-methoxy-34,35,36,37,48,49-hexamethyl-44-[2-(2-oxopyrrolidin-3-yl)ethoxy]-69,70-dioxa-59-azatricyclohexatriaconta-23,25,27(48),28(49)-tetraene-50,51,53,54,55-pentone] reads “strong inhibition”.
